Here are results for ten compounds from US6344462B1, “Heterocyclic compounds as bradykinin antagonists” (Fujisawa Pharmaceutical Co., Ltd., priority 1995, dated 2002).

Counter-ions that a name gives are not always drawn.

System in one data set: not given
Assay: not given
Details: not given
In turn, `Cc1ccc2cccc(OCc3c(Cl)ccc(C(=O)N4CCNCC4)c3Cl)c2n1.Cl.Cl` returned a melting point of 195 to 197 °C.

In turn, `CNC(=O)c1ccc(C=CC(=O)NC/C=C\c2ccc(Cl)c(COc3cccc4ccc(C)nc34)c2Cl)cc1OC` (as salt: hydrochloride) [50-(1) (hydrochloride), 8-[2,6-Dichloro-3-[(Z)-3-[3-methoxy-4-(methylcarbamoyl)cinnamoylamino]-1-propenyl]benzyloxy]-2-methylquinoline] yielded a melting point of 222 to 225 °C. `COc1nc2c(OCc3c(Cl)ccc(-n4cccc4CNC(=O)/C=C/c4ccc(NC(C)=O)nc4)c3Cl)cccc2n1C` [Example 21, 2-[(E)-3-(6-acetamidopyridin-3-yl)acryloylaminomethyl]-1-[2,4-dichloro-3-(2-methoxy-1-methyl-1H-benzimidazol-4-yloxymethyl)phenyl]pyrrole]: the melting point fell in the range of 233 to 240 °C.

Another data set addresses T1, Bradykinin receptor (Cavia porcellus, UniProt O70526).
T1 construct: from tissue; host or cells: guinea pig ileum, crude membrane preparation
T1 sequence (O70526 1-372): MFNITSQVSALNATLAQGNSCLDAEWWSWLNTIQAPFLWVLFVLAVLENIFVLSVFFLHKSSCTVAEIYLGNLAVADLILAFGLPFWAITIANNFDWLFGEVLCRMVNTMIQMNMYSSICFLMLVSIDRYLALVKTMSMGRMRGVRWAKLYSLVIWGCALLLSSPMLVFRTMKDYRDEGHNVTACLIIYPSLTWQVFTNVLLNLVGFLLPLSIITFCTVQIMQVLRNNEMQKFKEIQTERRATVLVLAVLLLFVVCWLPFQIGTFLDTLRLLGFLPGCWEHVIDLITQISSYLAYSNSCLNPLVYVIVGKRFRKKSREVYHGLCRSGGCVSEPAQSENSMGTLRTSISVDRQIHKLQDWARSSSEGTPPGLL
In words: 3H-Bradykinin receptor binding (crude guinea pig ileum membrane). To be noted: crude ileum membrane of male Hartly strain guinea pigs; 3H-Bradykinin 0.06 nM; room temperature, 60 minutes; read-out: Inhibition of 3H-Bradykinin binding IC50. The method, then: ^3H-Bradykinin receptor binding
(a) Crude ileum membrane preparation
Male Hartly strain guinea pigs were sacrificed by decapitation. The ileum was removed and homogenized in buffer (50 mM trimethylaminoethanesulfonic acid (TES), 1 mM 1,10-phenanthroline pH 6.8). The homogenate was centrifuged (1000×g, 20 minutes) to remove tissue clumps and the supernatant was centrifuges (100,000×g, 60 minutes) to yield a pellet. The pellet was resuspended in buffer (50 mM TES, 1 mM 1,10-phenanthroline, 140 mg/l bacitracin, 1 mM dithiothreiol, 0.1% bovine serum albumin pH 6.8) and homogenized with a glass-teflon homogenizer to yield suspension which was referred to as crude membrane suspension. The obtained membrane suspension was stored at −80° C. until use.
(b) ^3H-Bradykinin binding to the membrane
The frozen crude membrane suspension was thawed. In binding assays, ^3H-Bradykinin (0.06 nM) and the test compound were incubated with 50 μl of the membrane suspension at room temperature for 60 minutes in a final volume of 250 μl. Separation of receptor-bound from free ^3H-Bradykinin is achieved by immediate filtration under vacuum and washed three times with 5 ml of ice-cold buffer (50 mM Tris-HCl pH 7.5). Non-specific binding was defined as binding in the presence of 0.1 μM Bradykinin. The radioactivity retained on rinsed filters was determined by a liquid-scintillation counter.
Consider `Cc1ccc2cccc(OCc3c(Cl)ccc(-n4cccc4CNC(=O)/C=C/c4ccc(/C=C/c5ccncc5)nc4)c3Cl)c2n1` [15 (trihydrochloride), 1-[2,4-Dichloro-3-(2-methylquinolin-8-yloxymethyl)phenyl]-2-[(E)-3-[6-[(E)-2-(pyridin-4-yl)vinyl]pyridin-3-yl]acryloylaminomethyl]pyrrole], for which the IC50 amounted to 2.6 nM. On to `CCOC(=O)c1ccc(/C=C/C(=O)NCc2cccn2-c2ccc(Cl)c(COc3cccc4ccc(C)nc34)c2Cl)cn1` [16-(1), 1-[2,4-Dichloro-3-(2-methylquinolin-8-yloxymethyl)phenyl]-2-[(E)-3-(6-ethoxycarbonylpyridin-3-yl)acryloylaminomethyl]pyrrole], for which the IC50 worked out at 3.3 nM. Turning to `Cc1nc2c(OCc3c(Cl)ccc(-n4cccc4CNC(=O)/C=C/c4ccc(/C=C/c5ccncc5)nc4)c3Cl)cccn2c1Br` [23-(3) (trihydrochloride), 1-(3-(3-bromo-2-methylimidazo[1,2-a]pyridin-8-yloxymethyl)-2,4-dichlorophenyl]-2-[(E)-3-[6-[(E)-2-(pyridin-4-yl)vinyl]pyridin-3-yl]acryloylaminomethyl]pyrrole], the IC50 came to 4.3 nM.

As for `CNC(=O)c1ccc(/C=C/C(=O)NCc2cccn2-c2ccc(Cl)c(COc3cccc4c(-n5ccnc5)cc(C)nc34)c2Cl)cc1` [33 (dihydrochloride)], the IC50 was 3.2 nM. In the case of `CNC(=O)c1ccc(/C=C/C(=O)NCc2ccccc2-c2ccc(C)c(COc3cccc4ccc(C)nc34)c2C)cc1` [40-(6)], the IC50 was determined as 2.3 nM. In the case of `CNC(=O)c1ccc(C=CC(=O)NCc2sccc2-c2ccc(C)c(COc3cccc4ccc(C)nc34)c2C)cc1` [45-(6) (hydrochloride), 3-[2,4-Dimethyl-3-(2-methylquinolin-8-yloxymethyl)-phenyl]-2-[4-(methylcarbamoyl)-cinnamoylaminomethyl]thiophene], the IC50 is 2.8 nM. With `CNC(=O)c1ccc(C=CC(=O)NC/C=C\c2ccc(Cl)c(COc3cccc4ccc(C)nc34)c2Cl)cc1OC` [50-(1) (hydrochloride), 8-[2,6-Dichloro-3-[(Z)-3-[3-methoxy-4-(methylcarbamoyl)cinnamoylamino]-1-propenyl]benzyloxy]-2-methylquinoline], the IC50 came out at 7.4 nM.

As usually defined, the melting point is the temperature of the solid-liquid transition. A word on the IC50: it is the concentration that gives 50% inhibition.
